Reference: patent US20210299193A1, “SYNBIOTIC COMPOSITION FOR IMPROVING IMMUNE RESPONSE AND ANTIOXIDANT CAPACITY DURING AGING AND A PROCESS FOR THE PREPARATION THEREOF” (COUNCIL OF SCIENTIFIC & INDUSTRIAL RESEARCH, priority 2018, published 2021)

Tests used:
[1] = tested on: probiotic bacteria (Lactobacillus species); assay: Effect of EGCG on growth of probiotic bacteria (OD 600 nm); assay type: cell-based; conditions: 0.1% EGCG in media, vs control without EGCG
Source text: (§1) FIG. 1. Effect of EGCG on growth of probiotic and pathogenic bacterial species. The growth was monitored by inoculating a 5% inoculum of respective bacterial species into media containing 0.1% of EGCG. Growth was compared to that of control (without EGCG) to determine the influence of EGCG by spectrophotometric method (600 nm). Lactobacillus rhamnosus (LR); Lactobacillus fermentum (LF); Lactobacillus planatarum (LP); Escherichia coli (EC; MTCC 43); Salmonella typhi (ST; MTCC 733); Pseudomonas aeruginosa (PS; MTCC 424); Staphylococcus aureus (SA; MTCC 96); Klebsiella pneumoniae (K; MTCC 109); Shigella flexneri (SF; MTCC 1457); Vibrio cholera (VC; MTCC 3904).
(§2) To test prebiotic efficacy, the effect of EGCG on growth of probiotic bacteria (Lactobacillus species) and pathogenic bacteria [Escherichia coli (EC); Salmonella typhi (ST); Pseudomonas (PS); Staphylococcus aureus (SA); Klebsiella (K); Shigella flexneri (SF); Vibrio cholera (VC)] was assessed. The probiotic bacteria were isolated, identified and characterized while the pathogenic bacteria were procured from MTCC, Chandigarh.

[2] = tested on: pathogenic bacteria; assay: Effect of EGCG on growth of pathogenic bacteria (OD 600 nm); assay type: cell-based; conditions: 0.1% EGCG in media, vs control without EGCG
Source text: as §1, §2

[3] = tested on: splenocytes; assay: Flow cytometric analysis of splenocyte T cell sub-populations and activation status in aging animals; assay type: in vivo, swiss albino mice; conditions: 16 months old mice, oral supplementation 30 days
Experimental: The probiotic Lactobacillus, EGCG or a combination of the two were orally administered to aged animals for 31 days before sacrificing and subsequent analysis of various immune and oxidative stress associated parameters.
Effect of synbiotics supplementation on T cells sub-population of aging animals. Animals were fed with respective diets for 31 days following which splenocytes were analyzed by flow cytometry. (A) %CD3+ cells (B) %NK cells and (C) %NKT cells. Bars with different letter indicate significant difference at p<0.05.
Effect of synbiotics supplementation on activation status of T cells sub-population of aging animals. Animals were fed with respective diets for 31 days following which splenocytes were analyzed by flow cytometry. (A) Activated T cells (B) Activated NK cells and (C) Activated NKT cells. Bars with different letter indicate significant difference at p<0.05.
The synbiotic composition of EGCG and probiotic Lactobacillus sp was assessed for effects on cellular immune response using aging murine model. Animals (16 months old) were randomized into four groups of six mice each: 1 control group and 3 experimental groups comprising of either only EGCG (PRE), probiotic Lactobacillus sp (PRO) or a combination of both (SYN). All animals were fed on commercially available pelleted mice chow (Golden feeds, New Delhi, India) and water ad libitum. The experimental animal groups were each supplemented with EGCG (@100 mg/kg/animal/day), probiotic Lactobacilli sp (10^8 cfu/ml) or a combination of both above (synbiotic) respectively for 30 consecutive days. At the end of the feeding regimen, the animals were sacrificed for various immunological and antioxidative analysis.

O=C(O[C@@H]1Cc2c(O)cc(O)cc2O[C@@H]1c1cc(O)c(O)c(O)c1)c1cc(O)c(O)c(O)c1 [EGCG, Epigallocatechin gallate]
average decrease in growth of probiotics ([1]; 5% inoculum, average over probiotic species): 14.05% | decrease in growth of probiotics, Max ([1]; maximum among probiotic species): 31% | decrease in growth of probiotics, Min ([1]; minimum among probiotic species): 1.4% | average growth inhibition of pathogens ([2]; 5% inoculum, average over all pathogens): 52.05% | growth inhibition of pathogens, Max ([2]; maximum among pathogens): 89.88% | growth inhibition of pathogens, Min ([2]; minimum among pathogens): 32.7% | natural killer T cells (NKT) subpopulation [3]: no significant difference | activation of NK cells ([3]; vs control group): decrease | activation status of NKT cells ([3]; vs control group): no changes | numbers of natural killer cells (NK) ([3]; vs control group): appeared to decrease
